{"source": "paper PMC9474474", "about": "“Determination of pharmacokinetics and tissue distribution of a novel lutetium-labeled PSMA-targeted ligand, ^177Lu-DOTA-PSMA-GUL, in rats by using LC–MS/MS” (Scientific Reports, 2022)", "key": {"[1]": {"test": "Pharmacokinetics after i.v. bolus injection in rats (non-compartmental analysis, dose proportionality)", "format": "in vivo, Male Sprague–Dawley rats", "experimental": "(§1) Freshly prepared ^175Lu-DOTA-PSMA-GUL solution (2.1 mg/mL) was administered by i.v. bolus injection via the penile vein (n = 5–7) at three doses of 1, 2, and 5 mg/kg. Approximately 0.3 mL of the jugular venous blood samples were collected at predetermined times after i.v. injection. Plasma samples were harvested by centrifugation of the blood samples at 3220 × g for 10 min. Urine and feces samples were collected at 4, 8, 12, and 24 h after i.v. injection. All samples were stored at -70 °C until analysis.\n(§2) The plasma concentration–time data were analyzed by non-compartmental method using Phoenix® WinNonlin® (Pharsight, NC, USA). The fraction of ^175Lu-DOTA-PSMA-GUL excreted into urine (Furine) and feces (Ffeces) were calculated by the ratio of the total amount of drug excreted in the urine and feces to the fraction of the dose, respectively. The tissue-to-plasma partition coefficients (KP) were calculated as the tissue-to-plasma concentration ratios.\nDose proportionality was tested for Cmax, AUCall, and AUCinf based on power model. Assuming the natural logarithm of the pharmacokinetic parameter is linearly related to the natural logarithm of dose as in the following equation: ln(PK parameter) = β0 + β1 × ln(dose), the slope coefficient (β1) and its two-sided 95% confidence intervals (CI) were estimated."}, "[2]": {"test": "Excretion into urine and feces for 24 h after i.v. injection in rats", "format": "in vivo, Male Sprague–Dawley rats", "experimental": "as §1, §2"}, "[3]": {"details": "i.v. injection, average over doses"}}}
{"smiles": "O=C([O-])CN1CCN(CC(=O)[O-])CCN(CC(=O)[O-])C(Cc2ccc(NC(=S)NCCCC[C@H](NC(=O)N[C@@H](CCC(=O)O)C(=O)O)C(=O)O)cc2)CN(CC(=O)[O-])CC1.[Lu+3]", "note": "(stereo partly shown) [^175Lu-DOTA-PSMA-GUL, Lutetium labeled-1,4,7,10-tetraazacyclododecane-1,4,7,10-tetraacetic acid (DOTA)-PSMA-GUL]", "values": [{"measurement": "detection in the plasma", "setting": "[1]; after 4 h of i.v. injection", "result": "not detected"}, {"measurement": "clearance (CL)", "setting": "[1]; from the i.v. injection study", "result": 10.126, "unit": "mL/min/kg"}, {"measurement": "AUCall", "setting": "[1]; i.v. injection 1 mg/kg", "result": "1841.19 ± 266.36", "unit": "ng·h/mL"}, {"measurement": "AUCinf", "setting": "[1]; i.v. injection 1 mg/kg", "result": "1857.48 ± 270.08", "unit": "ng·h/mL"}, {"measurement": "C0", "setting": "[1]; i.v. injection 1 mg/kg", "result": "9267.42 ± 2673.59", "unit": "ng/mL"}, {"measurement": "CL", "setting": "[1]; i.v. injection 1 mg/kg", "result": "9.13 ± 1.30", "unit": "mL/min/kg"}, {"measurement": "MRT", "setting": "[1]; i.v. injection 1 mg/kg", "result": "20.4 ± 1.2", "unit": "min"}, {"measurement": "VSS", "setting": "[1]; i.v. injection 1 mg/kg", "result": "0.19 ± 0.03", "unit": "L/kg"}, {"measurement": "Vz", "setting": "[1]; i.v. injection 1 mg/kg", "result": "0.25 ± 0.03", "unit": "L/kg"}, {"measurement": "t1/2", "setting": "[1]; i.v. injection 1 mg/kg", "result": "19.2 ± 1.2", "unit": "min"}, {"measurement": "AUCall", "setting": "[1]; i.v. injection 2 mg/kg", "result": "3029.00 ± 350.80", "unit": "ng·h/mL"}, {"measurement": "AUCinf", "setting": "[1]; i.v. injection 2 mg/kg", "result": "3047.45 ± 346.00", "unit": "ng·h/mL"}, {"measurement": "C0", "setting": "[1]; i.v. injection 2 mg/kg", "result": "14,960.22 ± 3104.40 ng/mL"}, {"measurement": "CL", "setting": "[1]; i.v. injection 2 mg/kg", "result": "11.04 ± 1.15", "unit": "mL/min/kg"}, {"measurement": "MRT", "setting": "[1]; i.v. injection 2 mg/kg", "result": "19.2 ± 1.8", "unit": "min"}, {"measurement": "VSS", "setting": "[1]; i.v. injection 2 mg/kg", "result": "0.21 ± 0.04", "unit": "L/kg"}, {"measurement": "Vz", "setting": "[1]; i.v. injection 2 mg/kg", "result": "0.29 ± 0.05", "unit": "L/kg"}, {"measurement": "t1/2", "setting": "[1]; i.v. injection 2 mg/kg", "result": "18 ± 1.8", "unit": "min"}, {"measurement": "AUCall", "setting": "[1]; i.v. injection 5 mg/kg", "result": "8038.10 ± 1055.28", "unit": "ng·h/mL"}, {"measurement": "AUCinf", "setting": "[1]; i.v. injection 5 mg/kg", "result": "8076.44 ± 1063.99", "unit": "ng·h/mL"}, {"measurement": "C0", "setting": "[1]; i.v. injection 5 mg/kg", "result": "46,720.92 ± 13,829.91 ng/mL"}, {"measurement": "CL", "setting": "[1]; i.v. injection 5 mg/kg", "result": "10.46 ± 1.30", "unit": "mL/min/kg"}, {"measurement": "MRT", "setting": "[1]; i.v. injection 5 mg/kg", "result": "19.2 ± 1.2", "unit": "min"}, {"measurement": "VSS", "setting": "[1]; i.v. injection 5 mg/kg", "result": "0.20 ± 0.03", "unit": "L/kg"}, {"measurement": "Vz", "setting": "[1]; i.v. injection 5 mg/kg", "result": "0.30 ± 0.09", "unit": "L/kg"}, {"measurement": "t1/2", "setting": "[1]; i.v. injection 5 mg/kg", "result": "19.8 ± 5.4", "unit": "min"}, {"measurement": "average CL", "setting": "[1]; [3]", "result": 10.13, "unit": "mL/min/kg"}, {"measurement": "average volume of distribution (Vss)", "setting": "[1]; [3]", "result": 0.20, "unit": "L/kg"}, {"measurement": "Ffeces (fraction excreted into feces)", "setting": "[2]; i.v. injection 1 mg/kg", "result": "5.46 ± 4.11", "unit": "%"}, {"measurement": "Furine (fraction excreted into urine)", "setting": "[2]; i.v. injection 1 mg/kg", "result": "58.71 ± 21.26", "unit": "%"}, {"measurement": "Ffeces (fraction excreted into feces)", "setting": "[2]; i.v. injection 2 mg/kg", "result": "1.08 ± 0.76", "unit": "%"}, {"measurement": "Furine (fraction excreted into urine)", "setting": "[2]; i.v. injection 2 mg/kg", "result": "54.59 ± 25.98", "unit": "%"}, {"measurement": "Ffeces (fraction excreted into feces)", "setting": "[2]; i.v. injection 5 mg/kg", "result": "6.41 ± 3.68", "unit": "%"}, {"measurement": "Furine (fraction excreted into urine)", "setting": "[2]; i.v. injection 5 mg/kg", "result": "59.89 ± 22.82", "unit": "%"}]}
